{"source": "patent US20220242846A1", "about": "“ISOINDOLINONE COMPOUNDS” (Monte Rosa Therapeutics AG, priority 2019, published 2022)", "data": [{"biological_target": "T1, Full length wild-type cereblon CRBN (Homo sapiens, UniProt Q96SW2)", "T1 construct": "Full length wild-type cereblon CRBN (80.0 nM, 10 μL) was incubated in assay buffer", "T1 sequence (Q96SW2 whole entry)": "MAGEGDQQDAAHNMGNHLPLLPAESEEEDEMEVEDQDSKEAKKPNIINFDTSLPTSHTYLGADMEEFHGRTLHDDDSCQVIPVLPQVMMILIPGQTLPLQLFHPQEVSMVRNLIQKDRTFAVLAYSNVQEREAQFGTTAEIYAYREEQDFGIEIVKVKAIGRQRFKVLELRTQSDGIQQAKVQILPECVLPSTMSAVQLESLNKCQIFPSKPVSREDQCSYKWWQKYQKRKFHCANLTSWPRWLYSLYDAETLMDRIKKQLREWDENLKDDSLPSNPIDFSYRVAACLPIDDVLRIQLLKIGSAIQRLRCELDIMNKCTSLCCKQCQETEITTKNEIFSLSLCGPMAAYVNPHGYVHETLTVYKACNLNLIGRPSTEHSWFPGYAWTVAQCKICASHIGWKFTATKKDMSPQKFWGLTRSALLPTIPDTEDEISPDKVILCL", "assay": "Fluorescence polarization (FP) assay indicating cereblon binding", "conditions": "CRBN 80.0 nM, fluorescent probe 5 nM, FP measured after 12 hours; read-out: rFP IC50", "text": "Protocol for Fluorescent Polarization Assay\nCompound activity was monitored in a fluorescence polarization (FP) homogeneous assay using 1-[5-({2-[2-(2-{[2-(2,6-dioxopiperidin-3-yl)-1,3-dioxo-2,3-dihydro-1H-isoindol-4-yl]oxy}acetamido)ethoxy]ethyl}carbamoyl)pentyl]-3,3-dimethyl-2-[(1E,3E)-5-[(2E)-1,3,3-trimethyl-5-sulfo-2,3-dihydro-1H-indol-2-ylidene]penta-1,3-dien-1-yl]-3H-indol-1-ium-5-sulfonate as a fluorescent probe. Unless otherwise stated, all reagents were purchased from Sigma Aldrich. Enzymatic reactions were conducted in Perkin-Elmer Black 384 well ProxiPlate Plus (catalogue no. 6008269) in 10 μL total volume. Full length wild-type cereblon CRBN (80.0 nM, 10 μL) was incubated in assay buffer containing 20 mM HEPES (pH 8.0), […], 0.5 mM TCEP and 0.05% Tween 20 in the presence or absence of compound (300 nL). Inhibitors were stored as 10 mM DMSO stocks in an inert environment (low humidity, dark, low oxygen, room temperature) using the Storage Pod System. Compounds and DMSO were dispensed using the Echo E5XX (Labcyte Inc. USA) to give concentrations from 300 to 0.937 or 3000 to 9.3 nM in a 12 data point curve. […] Following incubation at room temperature for […], the assay was initiated by dispensing the probe to a final concentration of 5 nM (2.5 nL of a 20 μM stock) using the Echo E5XX. FP was measured after a period of 12 hours using a Pherastar plate reader (BMG Labtech, Germany) exciting at 590 nm and measuring the amount of parallel and perpendicular light at 675 nm. The FP signal was subsequently normalized to the no-compound control (i.e., DMSO). Analysis and IC50 values were derived using Dotmatics (Dotmatics UK) software.", "units": {"IC50": "nM"}, "values": [{"compound": "Cc1c(Cl)cc(NC(=O)NCc2ccc3c(c2)C(=O)N(C2CCC(=O)NC2=O)C3)cc1OCCN1CCOCC1", "note": "(stereo not shown) [Compound 127]", "IC50": 261}, {"compound": "Cc1c(Cl)cc(NC(=O)NCc2ccc3c(c2)C(=O)N(C2CCC(=O)NC2=O)C3)cc1CN1CCC(N2CCOCC2)CC1", "note": "(stereo not shown) [Compound 126]", "IC50": 193}, {"compound": "O=C1CCC(N2Cc3ccc(CNC(=O)Nc4cscn4)cc3C2=O)C(=O)N1", "note": "(stereo not shown) [Compound 99]", "IC50": 367}, {"compound": "COc1c(NC(=O)NCc2ccc3c(c2)C(=O)N(C2CCC(=O)NC2=O)C3)ccc(C)c1Cl", "note": "(stereo not shown) [Compound 86]", "IC50": 203}, {"compound": "O=C1CCC(N2Cc3ccc(CNC(=O)Nc4cc(F)cc(OC(F)(F)F)c4)cc3C2=O)C(=O)N1", "note": "(stereo not shown) [Compound 165]", "IC50": 1630}, {"compound": "Cc1c(Cl)cc(NC(=O)NCc2ccc3c(c2)C(=O)N(C2CCC(=O)NC2=O)C3)cc1C=O", "note": "(stereo not shown) [Compound 156]", "IC50": 607}, {"compound": "Nc1cccc(NC(=O)NCc2ccc3c(c2)C(=O)N(C2CCC(=O)NC2=O)C3)c1", "note": "(stereo not shown) [Compound 80]", "IC50": 515}, {"compound": "CC(C)(O)c1cccc(NC(=O)NCc2ccc3c(c2)C(=O)N(C2CCC(=O)NC2=O)C3)c1", "note": "(stereo not shown) [Compound 135]", "IC50": 477}, {"compound": "Cc1cc(C)c(NC(=O)NCc2ccc3c(c2)C(=O)N(C2CCC(=O)NC2=O)C3)c(C)c1Cl", "note": "(stereo not shown) [Compound 107]", "IC50": 247}, {"compound": "CC(C)(O)c1ccc(NC(=O)NCc2ccc3c(c2)C(=O)N(C2CCC(=O)NC2=O)C3)cc1", "note": "(stereo not shown) [Compound 131]", "IC50": 334}, {"compound": "O=C1CCC(N2Cc3ccc(CNC(=O)Nc4cccs4)cc3C2=O)C(=O)N1", "note": "(stereo not shown) [Compound 91]", "IC50": 315}, {"compound": "Cc1c(Cl)cc(NC(=O)NCc2ccc3c(c2)C(=O)N(C2CCC(=O)NC2=O)C3)cc1CN1CC2(COC2)C1", "note": "(stereo not shown) [Compound 109]", "IC50": 163}, {"compound": "Cn1nccc1-c1cccc(NC(=O)NCc2ccc3c(c2)C(=O)N(C2CCC(=O)NC2=O)C3)c1", "note": "(stereo not shown) [Compound 115]", "IC50": 230}, {"compound": "O=C1CCC(N2Cc3ccc(CNC(=O)Nc4cccnc4)cc3C2=O)C(=O)N1", "note": "(stereo not shown) [Compound 95]", "IC50": 432}, {"compound": "O=C1CCC(N2Cc3ccc(CNC(=O)Nc4cn[nH]c4)cc3C2=O)C(=O)N1", "note": "(stereo not shown) [Compound 108]", "IC50": 661}, {"compound": "Cc1cc(NC(=O)NCc2ccc3c(c2)C(=O)N(C2CCC(=O)NC2=O)C3)cc(CN2CCOCC2)c1C", "note": "(stereo not shown) [Compound 118]", "IC50": 256}, {"compound": "CN1CCC(Oc2cccc(NC(=O)NCc3ccc4c(c3)C(=O)N(C3CCC(=O)NC3=O)C4)c2)CC1", "note": "(stereo not shown) [Compound 130]", "IC50": 358}, {"compound": "Cn1ccc(-c2cccc(NC(=O)NCc3ccc4c(c3)C(=O)N(C3CCC(=O)NC3=O)C4)c2)n1", "note": "(stereo not shown) [Compound 116]", "IC50": 139}, {"compound": "Cc1nc(NC(=O)NCc2ccc3c(c2)C(=O)N(C2CCC(=O)NC2=O)C3)sc1C", "note": "(stereo not shown) [Compound 150]", "IC50": 304}]}, {"biological_target": "GSPT1 (Homo sapiens, UniProt P15170+Q96SW2)", "sequence (P15170 whole entry)": "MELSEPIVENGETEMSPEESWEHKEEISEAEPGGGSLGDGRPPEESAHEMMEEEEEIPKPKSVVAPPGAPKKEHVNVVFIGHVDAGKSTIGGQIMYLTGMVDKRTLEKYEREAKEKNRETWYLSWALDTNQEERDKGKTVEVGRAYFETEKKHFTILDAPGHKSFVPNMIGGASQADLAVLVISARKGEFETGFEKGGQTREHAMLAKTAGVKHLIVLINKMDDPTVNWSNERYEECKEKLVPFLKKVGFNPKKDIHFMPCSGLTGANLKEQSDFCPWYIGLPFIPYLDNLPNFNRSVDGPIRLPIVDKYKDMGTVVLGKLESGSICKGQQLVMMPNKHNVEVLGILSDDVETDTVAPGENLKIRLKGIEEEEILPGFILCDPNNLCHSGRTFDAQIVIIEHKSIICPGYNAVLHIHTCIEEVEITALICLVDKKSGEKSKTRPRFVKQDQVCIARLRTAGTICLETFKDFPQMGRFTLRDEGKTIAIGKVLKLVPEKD", "sequence (Q96SW2 whole entry)": "as the sequence (Q96SW2 whole entry) above", "sequence (Q16531 2-1140 partner limits assumed)": "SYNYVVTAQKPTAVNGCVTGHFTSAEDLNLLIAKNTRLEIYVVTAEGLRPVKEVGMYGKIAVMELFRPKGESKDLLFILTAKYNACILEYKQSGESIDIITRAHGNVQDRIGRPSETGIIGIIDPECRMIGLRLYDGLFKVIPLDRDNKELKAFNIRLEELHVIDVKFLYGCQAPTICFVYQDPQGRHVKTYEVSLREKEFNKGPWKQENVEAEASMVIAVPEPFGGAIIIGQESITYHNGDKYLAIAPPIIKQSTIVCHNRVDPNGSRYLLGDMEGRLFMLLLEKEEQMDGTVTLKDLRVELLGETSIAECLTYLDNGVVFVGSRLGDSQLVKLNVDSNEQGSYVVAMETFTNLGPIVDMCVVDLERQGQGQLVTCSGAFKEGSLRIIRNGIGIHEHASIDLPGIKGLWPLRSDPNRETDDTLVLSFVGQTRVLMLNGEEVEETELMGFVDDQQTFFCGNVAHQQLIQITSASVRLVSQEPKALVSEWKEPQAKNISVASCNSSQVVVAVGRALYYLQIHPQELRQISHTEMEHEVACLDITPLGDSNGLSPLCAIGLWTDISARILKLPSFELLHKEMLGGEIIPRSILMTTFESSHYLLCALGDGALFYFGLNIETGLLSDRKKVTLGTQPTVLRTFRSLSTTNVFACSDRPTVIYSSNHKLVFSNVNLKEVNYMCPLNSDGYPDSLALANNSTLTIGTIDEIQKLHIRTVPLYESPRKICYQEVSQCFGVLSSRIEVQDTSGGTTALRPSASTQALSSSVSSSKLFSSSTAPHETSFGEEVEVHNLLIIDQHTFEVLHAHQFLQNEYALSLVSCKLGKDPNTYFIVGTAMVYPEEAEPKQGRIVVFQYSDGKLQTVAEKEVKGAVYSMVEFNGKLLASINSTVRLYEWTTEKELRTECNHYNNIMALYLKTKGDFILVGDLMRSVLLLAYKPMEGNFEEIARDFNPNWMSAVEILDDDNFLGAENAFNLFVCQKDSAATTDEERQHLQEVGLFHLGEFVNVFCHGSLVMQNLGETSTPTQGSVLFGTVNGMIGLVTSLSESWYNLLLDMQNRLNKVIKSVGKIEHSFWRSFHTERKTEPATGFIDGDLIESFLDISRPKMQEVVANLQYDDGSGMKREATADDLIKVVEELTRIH", "assay": "Immunofluorescence assay for GSPT1 degradation in CAL-51 cells", "assay_type": "cell-based", "parameters": "CAL-51 cells were purchased from DSMZ (cat. Number ACC302); endogenous in cells; host or cells: CAL-51 (DSMZ ACC302)", "conditions": "GSPT1 degradation, compound treatment 6 hours, read-out: DC50", "method": "(§1) CAL-51 cells were purchased from DSMZ (cat. Number ACC302), sub-cultured in 90% Dulbecco's MEM (4.5 g/L glucose, Gibco 11965) +10% heat inactivated FBS (BioConcept, 2-01F136I) and incubated at 37° C., 5% CO2. For the assay, imaging microtiterplate Cell Carrier 96 Ultra (Perkin Elmer 6055302) were pre-coated with Fibronectin (Sigma F085, 300 at 0.2 μg/ml) in PBS (1000, Gibco 14190) for 45 min at room temperature, rinsed with PBS and CAL-51 cells (30K cells/well) were plated and let to adhere overnight. Cells were treated with compounds typically using a serial dilution ranging from 30 μM to 0.1 nM for 6 hours. Compounds were stored at 10 mM DMSO stocks. Vehicle (DMSO), positive (CC-885, 10 μM) and rescue controls (positive control plus 0.2 μM bortezomib) were also included at this stage. Cells were subsequently rinsed with PBS and fixed in 10% Formalin solution (50 μl, Sigma HT5011)) for 20 mins at room temperature. Following three consecutive PBS washes (100 μl), cells were permeabilized in 0.1% Triton X-100 in PBS (Sigma 93443, 50 μl) for 15 mins at room temperature. Following three further PBS washes, 50 μl blocking buffer (1% BSA, Sigma A4503, in PBS) was added for 45 min for signal-to-noise reduction. Primary antibody (human GSPT1, Sigma HPA052488) was diluted in blocking buffer (dil. 1/300, 35 μl/well) and incubated with the cells overnight at 4° C. After three PBS washes, Alexa-fluor 488 coupled secondary antibodies (Invitrogen, A32731, dil. 1/1000), Alexa-fluor 647-Phalloïdin (Invitrogen, A22287, dil. 1/200) and DAPI (Thermo, #62248, dil.1/1000) were diluted in blocking buffer and incubated with the samples for 2 hours at room temperature. After three final PBS washes, samples were conserved in 1000 PBS in the dark, until measurement. Image acquisition was performed on the Operetta High-Content Imager (Perkin-Elmer). Fluorescence intensity of Alexa-Fluor 488 (GSPT1), Alexa-Fluor 647 (Actin) and DAPI (Nucleus) were measured. For the determination of GSPT1 DC50 values, a custom algorithm implemented in the PerkinElmer image analysis software Harmony-Acapella® was developed. After user-defined setting of adjustment parameters, the analysis was run identically without human intervention for all image fields. DAPI staining of the nuclei was used to determine the location of cells using standard nuclei detection modules. Segmentation artifacts were removed by threshold-based filters for area, roundness and intensity. The outline of the cells was determined analogously from the sum of the normalized, smoothed DAPI and Actin channel, starting from each nucleus. The Alexa-Fluor 488 (GSPT1) signal intensity in each cell was finally measured, in order to obtain a Mean intensity per cell. GSPT1 degradation (DC50) was calculated after normalization to controls and data import in CDD vault Database, using non-linear regression. Activity for GSPT1 Degradation Table 3 assigns each compound a code indicating the ability for GSPT1 degradation: A, B or C. According to the code, A represents a DC50 value of ≤100 nM, B represents a DC50 value >100 nM and ≤300 nM and C represents a DC50 value of >300 nM.", "units": {"DC50": "nM"}, "values": [{"compound": "Cc1c(Cl)cc(NC(=O)NCc2ccc3c(c2)C(=O)N(C2CCC(=O)NC2=O)C3)cc1CN1CC2(COC2)C1", "note": "(stereo not shown) [Compound 109]", "DC50": 246}, {"compound": "Cn1nccc1-c1cccc(NC(=O)NCc2ccc3c(c2)C(=O)N(C2CCC(=O)NC2=O)C3)c1", "note": "(stereo not shown) [Compound 115]", "DC50": 299}]}, {"biological_target": "GSPT1 (Homo sapiens, UniProt P15170+Q96SW2)", "assay": "Immunofluorescence assay for GSPT1 degradation in CAL-51 cells", "assay_type": "cell-based", "parameters": "CAL-51 cells were purchased from DSMZ (cat. Number ACC302); endogenous in cells; host or cells: CAL-51 (DSMZ ACC302)", "conditions": "compound treatment 6 hours, read-out: Code: activity for GSPT1 degradation (DC50)", "method": "as §1", "units": {"DC50": "nM"}, "values": [{"compound": "Cc1c(Cl)cc(NC(=O)NCc2ccc3c(c2)C(=O)N(C2CCC(=O)NC2=O)C3)cc1OCCN1CCOCC1", "note": "(stereo not shown) [Compound 127]", "DC50": "≤ 100"}, {"compound": "Cc1c(Cl)cc(NC(=O)NCc2ccc3c(c2)C(=O)N(C2CCC(=O)NC2=O)C3)cc1CN1CCC(N2CCOCC2)CC1", "note": "(stereo not shown) [Compound 126]", "DC50": "> 300"}, {"compound": "O=C1CCC(N2Cc3ccc(CNC(=O)Nc4cscn4)cc3C2=O)C(=O)N1", "note": "(stereo not shown) [Compound 99]", "DC50": "> 300"}, {"compound": "COc1c(NC(=O)NCc2ccc3c(c2)C(=O)N(C2CCC(=O)NC2=O)C3)ccc(C)c1Cl", "note": "(stereo not shown) [Compound 86]", "DC50": "> 300"}, {"compound": "O=C1CCC(N2Cc3ccc(CNC(=O)Nc4cc(F)cc(OC(F)(F)F)c4)cc3C2=O)C(=O)N1", "note": "(stereo not shown) [Compound 165]", "DC50": "> 300"}, {"compound": "Cc1c(Cl)cc(NC(=O)NCc2ccc3c(c2)C(=O)N(C2CCC(=O)NC2=O)C3)cc1C=O", "note": "(stereo not shown) [Compound 156]", "DC50": "> 300"}, {"compound": "Nc1cccc(NC(=O)NCc2ccc3c(c2)C(=O)N(C2CCC(=O)NC2=O)C3)c1", "note": "(stereo not shown) [Compound 80]", "DC50": "> 300"}, {"compound": "CC(C)(O)c1cccc(NC(=O)NCc2ccc3c(c2)C(=O)N(C2CCC(=O)NC2=O)C3)c1", "note": "(stereo not shown) [Compound 135]", "DC50": "> 300"}, {"compound": "Cc1cc(C)c(NC(=O)NCc2ccc3c(c2)C(=O)N(C2CCC(=O)NC2=O)C3)c(C)c1Cl", "note": "(stereo not shown) [Compound 107]", "DC50": "> 300"}, {"compound": "CC(C)(O)c1ccc(NC(=O)NCc2ccc3c(c2)C(=O)N(C2CCC(=O)NC2=O)C3)cc1", "note": "(stereo not shown) [Compound 131]", "DC50": "> 300"}, {"compound": "O=C1CCC(N2Cc3ccc(CNC(=O)Nc4cccs4)cc3C2=O)C(=O)N1", "note": "(stereo not shown) [Compound 91]", "DC50": "> 300"}, {"compound": "Cc1c(Cl)cc(NC(=O)NCc2ccc3c(c2)C(=O)N(C2CCC(=O)NC2=O)C3)cc1CN1CC2(COC2)C1", "note": "(stereo not shown) [Compound 109]", "DC50": "100 to 300"}, {"compound": "Cn1nccc1-c1cccc(NC(=O)NCc2ccc3c(c2)C(=O)N(C2CCC(=O)NC2=O)C3)c1", "note": "(stereo not shown) [Compound 115]", "DC50": "100 to 300"}, {"compound": "O=C1CCC(N2Cc3ccc(CNC(=O)Nc4cccnc4)cc3C2=O)C(=O)N1", "note": "(stereo not shown) [Compound 95]", "DC50": "> 300"}, {"compound": "O=C1CCC(N2Cc3ccc(CNC(=O)Nc4cn[nH]c4)cc3C2=O)C(=O)N1", "note": "(stereo not shown) [Compound 108]", "DC50": "> 300"}, {"compound": "Cc1cc(NC(=O)NCc2ccc3c(c2)C(=O)N(C2CCC(=O)NC2=O)C3)cc(CN2CCOCC2)c1C", "note": "(stereo not shown) [Compound 118]", "DC50": "≤ 100"}, {"compound": "CN1CCC(Oc2cccc(NC(=O)NCc3ccc4c(c3)C(=O)N(C3CCC(=O)NC3=O)C4)c2)CC1", "note": "(stereo not shown) [Compound 130]", "DC50": "> 300"}, {"compound": "Cn1ccc(-c2cccc(NC(=O)NCc3ccc4c(c3)C(=O)N(C3CCC(=O)NC3=O)C4)c2)n1", "note": "(stereo not shown) [Compound 116]", "DC50": "> 300"}, {"compound": "Cc1nc(NC(=O)NCc2ccc3c(c2)C(=O)N(C2CCC(=O)NC2=O)C3)sc1C", "note": "(stereo not shown) [Compound 150]", "DC50": "> 300"}]}]}
